Series [1] relates to Cryptococcus neoformans (BNCC 225501). The series is classed as cell-based. The note with it: BNCC 225501, 48 h. As to the method: (§1) The antimicrobial and antifungal activities of 11 cyclic hexapeptides (Cy-f1 to Cy-f11) were evaluated by determining their minimum inhibitory concentrations (MICs) against a panel of pathogens (Figure 4). These pathogens included Gram-negative bacteria (Escherichia coli, Klebsiella pneumoniae, Pseudomonas aeruginosa), Gram-positive bacteria (Staphylococcus aureus, Bacillus subtilis, Staphylococcus aureus [MRSA], […]), and fungi (Candida tropicalis, Cryptococcus neoformans).
(§2) The antibacterial activity of peptide analogs was tested against different bacterial strains, all purified cyclotides underwent antibacterial testing against Gram-positive bacterium Staphylococcus aureus (BNCC 186335), Bacillus subtilis (BNCC 109047), and Staphylococcus aureus (MRSA, BNCC 330041), Gram-negative bacteria, including Acinetobacter baumannii (BNCC 337173), Pseudomonas aeruginosa (BNCC 125486), and […]. Fungi included Candida parapsilosis (BNCC 336515) and Candida tropicalis (BNCC 340288). All the above strains are from the Henan Provincial Engineering Research Center of Industrial Microorganisms (Henan, China). Escherichia coli (ATCC 25922) and Klebsiella pneumoniae (CMCC(B) 46117) were sourced from Guangzhou HuanKai Microbial Technology Co., Ltd. (Guangzhou, China). The peptides’ MIC was determined using the Clinical and Laboratory Standards Institute broth dilution procedure with slight modifications.
(§3) Each test was performed at least three times. MIC (minimum inhibitory concentration) values were determined as the concentrations of peptides that caused >99% inhibition of bacterial growth.

Another series concerns Candida tropicalis. The experiment in a line: Scanning electron microscopy of treated cells. The series is classed as cell-based. Conditions: 4 MIC (32 μM for Cy-f2, 128 μM for Cy-f4), 1 h, 30 °C, 5000× magnification; clotrimazole as positive control. As to the method:
(§4) To investigate the morphological effects of the cyclic peptides Cy-f2 and Cy-f4 on Klebsiella pneumoniae and Candida tropicalis, scanning electron microscopy (SEM) was performed (Figure 7). […] Untreated cells served as controls. Samples were fixed, dehydrated, and coated with gold for SEM imaging at 5000× magnification. Effects on Klebsiella pneumoniae (Panel A). […] The bactericidal efficacy of Cy-f2 and Cy-f4 against Klebsiella pneumoniae was verified through comparative evaluation of the treatment group and the positive control group. Effects on Candida tropicalis (Panel B) untreated C. tropicalis cells in the control group appeared as smooth, spherical to oval-shaped yeast cells with intact cell walls.
(§5) According to the method of He with adjustments, bacteria were grown to the logarithmic phase and then washed and resuspended in sterile PBS to an OD600 of 0.4. They were incubated with an equal volume of AMPs at 4× MIC for 1 h. After incubation, the bacterial pellets were washed three times with PBS and centrifuged at 3500 rpm for 4 min. The pellets were then fixed overnight in 2.5% (w/v) glutaraldehyde. The bacterial samples were dehydrated using a series of ethanol solutions with increasing concentrations (30%, 50%, 70%, 90%, and 100%). After dehydration, the samples were dried and sputter-coated with gold. Bacterial fragmentation was observed using scanning electron microscopy (HITACHI SU5000, Tokyo, Japan). Untreated bacterial suspensions served as the negative control.

In series [2] the test system is Klebsiella pneumoniae. The experiment in a line: Scanning electron microscopy of treated cells. The format is cell-based. Conditions: 4 MIC (64 μM for Cy-f2, 128 μM for Cy-f4), 1 h, 37 °C, 5000× magnification; cefoperazone sodium as positive control. As to the method:
as §4, §5

Another series concerns red blood cells (RBCs). The series is classed as cell-based. Here is the method:
(§6) Based on the antimicrobial activity screening, a hemolysis assay was conducted to assess the toxicity of Cy-f1, Cy-f2, and Cy-f4 (Figure 5). For Cy-f1, the hemolysis percentage remained consistently low across all tested concentrations. At 8 μM, Cy-f1 induced approximately 0.12% hemolysis. […] For Cy-f2, the hemolysis percentage also remained consistently low across all tested concentrations. At 8 μM, Cy-f2 induced approximately 0.3% hemolysis, and Cy-f2 stayed stable at 0.3% at 16 μM and 32 μM. […] At 8 μM, it induced approximately 0.7% hemolysis, […]. However, hemolysis increased slightly with higher concentrations, reaching approximately […] and 1.1% at 16 μM and 32 μM, respectively. […] In this experiment Triton X-100 was used as a positive control with a hemolysis rate of 100%.
Figure S4. SEM images of RBCs treated with Cy-f1, Cy-f2, and Cy-f4. (A) SEM images of RBCs
treated with Cy-f1. (B) SEM images of RBCs treated with Cy-f2. (C) SEM images of RBCs treated […]

Series [3] has as its system Candida tropicalis (BNCC 340288). The series is classed as cell-based. The note with it: BNCC 340288, 24 h. As to the method: as §1, §2
Candida tropicalis was cultured on Sabourad Dextrose Agar (SDA). A single colony was inoculated in YM broth medium and grown overnight at 37 °C while shaking. Peptides were diluted in SDB media by two-fold dilution, resulting in 100 µL of medium containing increasing concentrations. The overnight culture (turbidity at OD600 = 1) was 1000× diluted in SDB. Then 100 µL of this suspension was added to each well, resulting in a final 200 µL suspension containing 2–4 × 10^5 CFU/mL. The plate was incubated at 37 °C for 24 h.
as §3

The test system of series [4] is Klebsiella pneumoniae. The experiment in a line: Time-dependent growth kinetics (time-kill). The series is classed as cell-based. The note with it: 37 °C. As to the method: Bacterial viability, expressed as logarithmic colony-forming units per milliliter (Lg CFU/mL), was monitored over 240 min at 37 °C. Results are presented in Figure 6, X as the mean Lg CFU/mL ± standard deviation (SD) from three independent experiments. […] At 2× MIC, a more pronounced effect was observed, with the Lg CFU/mL decreasing to 4.0, a 3.9 Lg CFU/mL reduction. […] This rapid killing profile supports Cy-f2’s potential as an effective antimicrobial peptide.
Klebsiella pneumoniae was cultured in fresh LB nutrient broth at 37 °C following the protocol described by Huang et al., with modifications. Upon reaching the logarithmic growth phase, the bacterial suspension was adjusted to approximately 10^6 CFU/mL and subsequently treated with cyclized f2 at concentrations corresponding to 1×, 2×, and 4× the minimum inhibitory concentration (MIC). Aliquots were collected at 1, 2, 3, and 4 h post-treatment, serially diluted, and plated onto solid agar medium for 24 h incubation. Colony-forming units (CFUs) were enumerated to assess bacterial viability. All experiments were performed in triplicate. Time-dependent growth kinetics were analyzed by plotting bacterial survival (log10 CFU/mL) against time (h) using GraphPad Prism9.5, enabling statistical evaluation of the bactericidal and bacteriostatic effects of the cyclic hexapeptide.

Series [5] has as its system Bacillus subtilis (BNCC 109047). The series is classed as cell-based. As to the method:
as §1, §2
(§7) Colonies of these bacterial strains were grown in respective agar media, then inoculated in Mueller Hinton (MH) broth and incubated at 37 °C overnight. The peptide solutions were first diluted 1 in 100 (from the stock solution at 20 mM) and then further two-fold dilution in MH broth in a sterile 96-well plate was performed, resulting in 100 µL of broth containing increasing concentrations. Bacteria in their exponential growth phase were diluted in MH broth, and 100 µL of this suspension was added in each well. […] Then, these plates were incubated at 37 °C for 20–22 h.
as §3

In series [6] the test system is Klebsiella pneumoniae (CMCC(B) 46117). The format is cell-based. As to the method:
as §1, §2, §7, §3

For series [7], the system named is Staphylococcus aureus (MRSA, BNCC 330041). The format is cell-based. Here is the method:
as §1, §2, §7, §3

The test system of series [8] is Escherichia coli (ATCC 25922). The series is classed as cell-based. Here is the method: as §1, §2, §7, §3
The subject of series [9] is Staphylococcus aureus (BNCC 186335). The series is classed as cell-based. Here is the method:
as §1, §2, §7, §3

In series [10] the test system is Pseudomonas aeruginosa (BNCC 125486). The format is cell-based. Here is the method:
as §1, §2, §7, §3

For the next series, the system named is red blood cells. The format is cell-based, mouse. Here is the method:
as §6
For the hemolytic assay, 2 mL of fresh blood was collected from a healthy mouse into an EDTA-coated tube. All procedures regarding the care and use of laboratory animals adhered to the guidelines established by the Guangxi University Ethics Committee (Approval No.: GXU-2024-063). According to the method of Tan with necessary adjustments. The blood was centrifuged and upper supernatant plasma was removed. […] After centrifugation, 200 µL of supernatant were transferred into a 96-well plate and the absorbance was recorded at 576 nm using a microplate reader. […]

≈ marks a conversion by molar mass, not a printed value. Where a SMILES comes first, the peptide text is derived from it.

Turning to `CC[C@H](C)[C@@H]1NC(=O)[C@H](CCCCN)NC(=O)[C@H](CC(C)C)NC(=O)[C@H](CCCNC(=N)N)NC(=O)[C@H](CS)NC(=O)[C@H](Cc2ccccc2)NC1=O` [Cy-f2] (cyclo(CRLKIF)), the “MIC against C. neoformans” value in series [1] worked out at 8 µM (≈ 6.09 µg/mL). Further, the “Cell morphology of C. tropicalis by SEM” value in the series with Candida tropicalis is “surface irregularities, cell wall deformation, and some degree of cell collapse”. In the series with Klebsiella pneumoniae [2], the “Cell morphology of K. pneumoniae by SEM” value was “surface roughening, cell shrinkage, and partial membrane disruption”. The “Morphology of red blood cells by SEM” value with red blood cells (RBCs) is recorded as “maintained well-preserved cell morphology”. Also, the “MIC against C. tropicalis” value in series [3] stood at 16 µM (≈ 12.2 µg/mL). For the same compound, the “Reduction of bacterial viability after 240 min” value in the series with Klebsiella pneumoniae [4] (1× MIC (16 μM)) stood at 2.4 Lg CFU/mL; with Klebsiella pneumoniae [4] (2× MIC (32 μM)) it was 3.9 Lg CFU/mL. Further, the “Bacterial viability after 240 min” value is 5.60 Lg CFU/mL in the series with Klebsiella pneumoniae [4] (1× MIC (16 μM), start 6.55 Lg CFU/mL, mean of three independent experiments) and 4.0 Lg CFU/mL in the series on Klebsiella pneumoniae [4] (2× MIC (32 μM), mean of three independent experiments). The “Bacterial viability within 240 min” value with Klebsiella pneumoniae [4] (4× MIC (64 μM), mean of three independent experiments) is listed as “below 1.0 Lg CFU/mL”. Also, the “MIC against B. subtilis” value in series [5] turned out to be 32 µM (≈ 24.4 µg/mL). In addition, the “MIC against K. pneumoniae” value in [6] turned out to be 16 µM (≈ 12.2 µg/mL). The “MIC against MRSA” value in series [7] was determined as 32 µM (≈ 24.4 µg/mL). Further, the “MIC against E. coli” value in [8] was determined as 16 µM (≈ 12.2 µg/mL). Moreover, the “MIC against S. aureus” value in series [9] came to 8 µM (≈ 6.09 µg/mL). For the same compound, the “MIC against P. aeruginosa” value in [10] amounted to 16 µM (≈ 12.2 µg/mL).
Consider Triton X-100, for which, in the series on red blood cells, the “Hemolysis rate (positive control)” value turned out to be 100%.
